Assay results from patent US10508114B2, “Spiro-isoquinoline-4,4′-piperidine compounds having multimodal activity against pain” (ESTEVE PHARMACEUTICALS, S.A., priority 2015, dated 2019).

System: human σ1 receptor and human μ-opioid receptor
Assay: Human σ1 receptor and human μ-opioid receptor radioligand binding assays, reported on one dual scale
Set-up: key to μ and σ1 dual (binding expressed as Ki): +: Both Ki-μ and Ki-σ1>500 nM; ++: One Ki<500 nM while the other Ki is >=500 nM; +++: Both Ki-μ and Ki-σ1<500 nM; ++++: Both Ki-μ and Ki-σ1<100 nM
Details: combined class for both receptors; [3H](+)-pentazocine on transfected HEK-293 membranes (σ1), [3H]-DAMGO on transfected CHO-K1 membranes (μ)
Procedure: Human σ1 Receptor Radioligand Assay
To investigate binding properties of test compounds to human σ1 receptor, transfected HEK-293 membranes and [^3H](+)-pentazocine (Perkin Elmer, NET-1056), as the radioligand, were used. The assay was carried out with 7 μg of membrane suspension, 5 nM of [^3H](+)-pentazocine in either absence or presence of either buffer or 10 μM Haloperidol for total and non-specific binding, respectively. Binding buffer contained Tris-HCl 50 mM at pH 8. Plates were incubated at 37° C. for 120 minutes. After the incubation period, the reaction mix was then transferred to MultiScreen HTS, FC plates (Millipore), filtered and plates were washed 3 times with ice-cold 10 mM Tris-HCL (pH7.4). Filters were dried and counted at approximately 40% efficiency in a MicroBeta scintillation counter (Perkin-Elmer) using EcoScint liquid scintillation cocktail
Human μ-Opioid Receptor Radioligand Assay
To investigate binding properties of test compounds to human μ-opioid receptor, transfected CHO-K1 cell membranes and [^3H]-DAMGO (Perkin Elmer, ES-542-C), as the radioligand, were used. The assay was carried out with 20 μg of membrane suspension, 1 nM of [^3H]-DAMGO in either absence or presence of either buffer or 10 μM Naloxone for total and non-specific binding, respectively. Binding buffer contained Tris-HCl 50 mM, MgCl2 5 mM at pH 7.4. Plates were incubated at 27° C. for 60 minutes. After the incubation period, the reaction mix was then transferred to MultiScreen HTS, FC plates (Millipore), filtered and plates were washed 3 times with ice-cold 10 mM Tris-HCL (pH 7.4). Filters were dried and counted at approximately 40% efficiency in a MicroBeta scintillation counter (Perkin-Elmer) using EcoScint liquid scintillation cocktail.

| SMILES | μ and σ1 dual (binding expressed as Ki) |
| --- | --- |
| O=C1NCC2(CCN(Cc3ccccc3)CC2)c2ccccc21 [Example 1, 1′-Benzyl-2,3-dihydro-1H-spiro[isoquinoline-4,4′-piperidin]-1-one] | ++ |
| CN1CC2(CCN(Cc3ccccc3)CC2)c2ccccc2C1=O [Example 2, 1′-Benzyl-2-methyl-2,3-dihydro-1H-spiro[isoquinoline-4,4′-piperidin]-1-one] | ++ |
| CCN1CC2(CCN(Cc3ccccc3)CC2)c2ccccc2C1=O [Example 3, 1′-Benzyl-2-ethyl-2,3-dihydro-1H-spiro[isoquinoline-4,4′-piperidin]-1-one] | ++ |
| O=C1c2ccccc2C2(CCN(Cc3ccccc3)CC2)CN1CCO [Example 7, 1′-Benzyl-2-(2-hydroxyethyl)-2,3-dihydro-1H-spiro[isoquinoline-4,4′-piperidin]-1-one] | ++ |
| CC(=O)N1Cc2ccccc2C2(CCN(CCc3ccccc3)CC2)C1 [Example 10, 1-(1′-Phenethyl-1H-spiro[isoquinoline-4,4′-piperidine]-2(3H)-yl)ethanone] | ++ |
| O=C1c2ccccc2C2(CCN(CCc3ccccc3)CC2)CN1CCO [Example 11, 2-(2-Hydroxyethyl)-1′-phenethyl-2,3-dihydro-1H-spiro[isoquinoline-4,4′-piperidin]-1-one] | ++ |

Same assay, conditions: combined class for both receptors; [3H](+)-pentazocine on transfected HEK-293 membranes (σ1), [3H]-DAMGO on transfected CHO-K1 membranes (μ); read-out: μ and σ1 dual (binding expressed as Ki)

| SMILES | Ki [nM] |
| --- | --- |
| O=C1NCC2(CCN(CCc3ccccc3)CC2)c2ccccc21 [Example 4, 1′-Phenethyl-2,3-dihydro-1H-spiro[isoquinoline-4,4′-piperidin]-1-one] | < 500 |
| CN1CC2(CCN(CCc3ccccc3)CC2)c2ccccc2C1=O [Example 5, 2-Methyl-1′-phenethyl-2,3-dihydro-1H-spiro[isoquinoline-4,4′-piperidin]-1-one] | < 500 |
| CCN1CC2(CCN(CCc3ccccc3)CC2)c2ccccc2C1=O [Example 6, 2-ethyl-1′-phenethyl-2,3-dihydro-1H-spiro[isoquinoline-4,4′-piperidin]-1-one] | < 500 |
| c1ccc(CCN2CCC3(CC2)CNCc2ccccc23)cc1 [Example 8, 1′-Phenethyl-2,3-dihydro-1H-spiro[isoquinoline-4,4′-piperidine]] | < 500 |
| CN1Cc2ccccc2C2(CCN(CCc3ccccc3)CC2)C1 [Example 9, 2-Methyl-1′-phenethyl-2,3-dihydro-1H-spiro[isoquinoline-4,4′-piperidine]] | < 500 |
